Measured values: patent publication US20220202882A1, “EFFECT OF COMBINATION OF BIFIDOBACTERIUM AND BERBERINE ON PRE-DIABETES AND TYPE 2 DIABETES” (The Fourth Military Medical University, priority 2018, published 2022)
Where a name gives a salt, the structure may show the parent alone.

Legend:
[1] = tested on: pre-diabetic and type 2 diabetes mellitus patients; assay: Clinical trial: venous plasma glucose at 2 hours post OGTT (2-h PPG); type: in vivo, human; settings: for Effect on 2 h-PPG (in words) / Post-treatment 2-h PPG - pre-treatment 2-h PPG, mean value / Post-treatment 2-h PPG <10.0 mmol/L, Yes-N (%): 16 weeks of treatment; for Effect on 2 h-PPG (in words): Kruskal-Wilcox test; for Post-treatment 2-h PPG, mean value: after 16 weeks of treatment; for Pre-treatment 2-h PPG, mean value: baseline before treatment
Protocol: (§1) From June 2015 to October 2018, a double-blind, randomized, and parallel-controlled trial, studying the effects of the combined use of Bifidobacterium and berberine on pre-diabetic and type 2 diabetes mellitus patients, was conducted in 10 research centers in Xi'an, Yan'an and Shangluo of Shaanxi province, etc., including the First Affiliated Hospital of the Fourth Military Medical University. The trial included an enrollment stage of 2 weeks and a treatment stage of 16 weeks. After passing the first visit 1 (see V1 in Table 1), the subjects entered the enrollment stage, i.e., 2 weeks of lifestyle intervention, followed by a re-screening (see V2 in Table 1). The subjects were subjected to a 16-week course of treatment after passing the screening. See Table 1 for the detailed screening parameters. After the enrollment stage, the baseline data of the 300 successfully enrolled subjects were collected. Meanwhile, the subjects started to receive lifestyle guidance, and were randomly divided into four groups for 16 weeks of treatments. 1) Bifidobacterium group: the subjects were administered with Bifidobacterium capsules (Livzon Pharmaceutical Group Inc., batch no.: 20141013), 0.35 g/capsule, each capsule containing 50,000,000 viable bacteria (Bifidobacterium adolescentis DM8504), 2 capsules/time, 2 times/day, plus berberine placebo tablets (Northeast Pharma Group Shenyang First Pharma Co., Ltd., Lot no.: 20150101, containing 80.2% microcrystalline cellulose, 9.4% pregelatinized starch, 6.4% sodium carboxymethyl starch, 1% magnesium stearate, and 3% copovidone), 0.1 g/tablet, 5 tablets/time, 2 times/day. 2) Berberine group: the subjects were administered with berberine tablets (Northeast Pharma Group Shenyang First Pharma Co., Ltd., Lot no.: 130917, each tablet weighted 0.165 g and contained 0.1 g active berberine ingredient (berberine hydrochloride), with the same excipients as the placebo tablets), 5 tablets/time, 2 times/day, plus Bifidobacterium placebo capsules (Livzon Pharmaceutical Group Inc., Lot no.: 141001, specifically containing 0.348 g spray-dried lactose, and 0.002 g magnesium stearate), 0.35 g/capsule, 2 capsules/time, 2 times/day. 3) Combination Group: the subjects were administered with Bifidobacterium capsules, 0.35 g/capsule, each capsule containing 50,000,000 viable bacteria (B. adolescentis DM8504), 2 capsules/time, 2 times/day, plus berberine tablets, 0.1 g/tablet, each tablet containing 0.1 g active berberine ingredient (berberine hydrochloride), 5 tablets/time, 2 times/day. 4) Control group: the subjects were administered with Bifidobacteria placebo capsules, 0.35 g/capsule, 2 capsules/time, 2 times/day, plus berberine placebo tablets, 0.1 g/tablet, 5 tablets/time, 2 times/day. Bifidobacterium capsules were taken after meals and berberine tablets were taken before meals. Before the oral glucose tolerance test (OGTT), the subjects took regular diets for at least 3 days, with carbohydrates no less than 150 g. After 10-12 h fasting, initial blood samples were collected after the subjects emptied their bladders. Then the subjects drank a sugar solution made by dissolving 75 g anhydrous glucoses in 300 ml water over about 5 min, and were collected for blood samples after 30 min and 2 h. […]

[2] = tested on: pre-diabetic and type 2 diabetes mellitus patients; assay: Clinical trial: blood lipids (total cholesterol, HDL, LDL); type: in vivo, human; settings: for Effect on total cholesterol level (in words) / High-density lipoprotein change, mean value / Post-treatment low-density lipoprotein - pre-treatment low-density lipoprotein, mean value / Post-treatment total cholesterol - pre-treatment total cholesterol, mean value: 16 weeks of treatment; for Effect on total cholesterol level (in words): Kruskal-Wilcox test; for Post-treatment low-density lipoprotein, mean value / Post-treatment total cholesterol, mean value: after 16 weeks of treatment; for Pre-treatment low-density lipoprotein, mean value / Pre-treatment total cholesterol, mean value: baseline before treatment
Protocol: as §1, with “Tests of all samples in” for “Before”, “study were carried out in a designated laboratory with standardized criteria. Blood analysis covered hundreds of indicators including insulin, amino acids, cytokines etc. After the sample testing was finished, 1) Chi-Squared test and t-test were used to evaluate the intergroup balance of the baseline data including the demographic characteristics and pre-treatment indicators, wherein the baseline data referred to those collected at the second visit, before the formal administration, the data collected at the first visit on the enrollment stage were used instead if the data at the second visit was lacking; 2) two-way disordered CM-CH11, Kruska-Wilcox test, etc. were used for analysis and intergroup comparison of pre- and post-treatment indicators such as fasting plasma” for “oral”, “(FPG), HbA1c, plasma glucose at 2 hours post OGTT (2-h PPG), blood pressure, blood lipids, body weight and BMI; 3) adverse events and hypoglycemia events were described in terms of” for “tolerance test (OGTT),”, “type, frequency and relevance with the drugs,” for “subjects took regular diets”, “safety evaluation. Software SAS 9.1.3 was used for statistical analysis” for “at least 3 days,”, “all analysis processes being programmed.” for “carbohydrates no less than 150 g. After 10-12 h fasting, initial blood samples were collected after the subjects emptied their bladders. Then the subjects drank a sugar solution made by dissolving 75 g anhydrous glucoses in 300 ml water over about 5 min, and were collected for blood samples after 30 min and 2 h.”

| Molecule | Effect on 2 h-PPG (in words) [1] | Post-treatment 2-h PPG - pre-treatment 2-h PPG, mean value ([1]; FAS) [mmol/L] | Post-treatment 2-h PPG <10.0 mmol/L, Yes-N (%) ([1]; FAS) | Post-treatment 2-h PPG, mean value ([1]; FAS) [mmol/L] | Pre-treatment 2-h PPG, mean value ([1]; FAS) [mmol/L] | Post-treatment 2-h PPG <10.0 mmol/L, Yes-N (%) ([1]; PPS) | Effect on total cholesterol level (in words) [2] | High-density lipoprotein change, mean value ([2]; FAS) [mmol/L] | Post-treatment low-density lipoprotein - pre-treatment low-density lipoprotein, mean value ([2]; FAS) [mmol/L] | Post-treatment total cholesterol - pre-treatment total cholesterol, mean value ([2]; FAS) [mmol/L] | Post-treatment low-density lipoprotein, mean value ([2]; FAS) [mmol/L] | Post-treatment total cholesterol, mean value ([2]; FAS) [mmol/L] | Pre-treatment low-density lipoprotein, mean value ([2]; FAS) [mmol/L] | Pre-treatment total cholesterol, mean value ([2]; FAS) [mmol/L] | High-density lipoprotein change, mean value ([2]; PPS) [mmol/L] |
| --- | --- | --- | --- | --- | --- | --- | --- | --- | --- | --- | --- | --- | --- | --- | --- |
| Bifidobacterium | no such effect | -0.246 | 45(45.00) N (%) | 11.3 | 11.4 | 31(37.35) N (%) | did not have evident total cholesterol lowing effect | 0.03 | -0.00247 | 0.0219 | 2.9 | 4.8100 | 2.85 | 4.7600 | 0.03 |
| COc1ccc2cc3[n+](cc2c1OC)CCc1cc2c(cc1-3)OCO2 [Berberine, berberine hydrochloride] | good effect too | -1.1 | 35(71.43) N (%) | 9.84 | 11.2 | 24(64.86) N (%) | significantly reduce the total cholesterol level | 0.00 | -0.15 | -0.2770 | 2.76 | 4.6400 | 2.99 | 5.0200 | -0.00 |
